Data published in publication PMC12687453, “Plasma membrane folate transport in fungi and plants is mediated by members of the oligopeptide transporter (OPT) family” (Biochemical Journal, 2025).

Key:
Assay in all cases: LC-MS/MS cellular uptake versus vector control
Format in all cases: cell-based
AfOPTH = molecular target: T1, AfOPTH (Aspergillus fumigatus, UniProt Q4WAD5); settings: 100 uM folinic acid, opt1-delta cells, pH 5.5, 30 °C, 5 min
T1 construct: gene AFUA_7G00910; plasmid-expressed in S. cerevisiae opt1-delta cells (MET25 promoter; TEF)
T1 sequence (Q4WAD5 1-757): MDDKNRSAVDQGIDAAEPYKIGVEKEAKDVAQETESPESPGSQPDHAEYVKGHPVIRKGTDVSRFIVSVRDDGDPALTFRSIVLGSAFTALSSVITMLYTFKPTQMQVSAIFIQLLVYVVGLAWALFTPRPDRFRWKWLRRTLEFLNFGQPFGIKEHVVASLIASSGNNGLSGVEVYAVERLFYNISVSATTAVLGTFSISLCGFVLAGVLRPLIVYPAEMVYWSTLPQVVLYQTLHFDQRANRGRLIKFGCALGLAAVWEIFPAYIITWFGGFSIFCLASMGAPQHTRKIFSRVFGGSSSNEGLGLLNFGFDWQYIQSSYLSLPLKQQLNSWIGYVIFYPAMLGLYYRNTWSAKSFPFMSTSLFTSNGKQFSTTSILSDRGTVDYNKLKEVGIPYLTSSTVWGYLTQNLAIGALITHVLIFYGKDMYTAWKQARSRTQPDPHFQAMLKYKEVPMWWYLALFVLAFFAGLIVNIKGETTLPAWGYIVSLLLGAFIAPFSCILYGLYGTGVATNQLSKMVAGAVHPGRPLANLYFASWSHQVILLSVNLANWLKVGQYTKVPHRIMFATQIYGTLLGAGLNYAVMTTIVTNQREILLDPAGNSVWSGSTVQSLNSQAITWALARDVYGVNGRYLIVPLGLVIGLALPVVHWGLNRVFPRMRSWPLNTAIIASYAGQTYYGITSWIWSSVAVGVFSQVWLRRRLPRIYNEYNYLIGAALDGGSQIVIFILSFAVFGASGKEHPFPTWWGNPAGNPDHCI

AtOPT4 = molecular target: T2, AtOPT4 (Arabidopsis thaliana, UniProt Q9FME8); settings: 100 uM folinic acid, opt1-delta cells, pH 5.5, 30 °C, 5 min
T2 construct: gene OPT4; cDNA from Arabidopsis Biological Resource Center, TEF promoter plasmid, in S. cerevisiae opt1-delta cells
T2 sequence (Q9FME8 2-729): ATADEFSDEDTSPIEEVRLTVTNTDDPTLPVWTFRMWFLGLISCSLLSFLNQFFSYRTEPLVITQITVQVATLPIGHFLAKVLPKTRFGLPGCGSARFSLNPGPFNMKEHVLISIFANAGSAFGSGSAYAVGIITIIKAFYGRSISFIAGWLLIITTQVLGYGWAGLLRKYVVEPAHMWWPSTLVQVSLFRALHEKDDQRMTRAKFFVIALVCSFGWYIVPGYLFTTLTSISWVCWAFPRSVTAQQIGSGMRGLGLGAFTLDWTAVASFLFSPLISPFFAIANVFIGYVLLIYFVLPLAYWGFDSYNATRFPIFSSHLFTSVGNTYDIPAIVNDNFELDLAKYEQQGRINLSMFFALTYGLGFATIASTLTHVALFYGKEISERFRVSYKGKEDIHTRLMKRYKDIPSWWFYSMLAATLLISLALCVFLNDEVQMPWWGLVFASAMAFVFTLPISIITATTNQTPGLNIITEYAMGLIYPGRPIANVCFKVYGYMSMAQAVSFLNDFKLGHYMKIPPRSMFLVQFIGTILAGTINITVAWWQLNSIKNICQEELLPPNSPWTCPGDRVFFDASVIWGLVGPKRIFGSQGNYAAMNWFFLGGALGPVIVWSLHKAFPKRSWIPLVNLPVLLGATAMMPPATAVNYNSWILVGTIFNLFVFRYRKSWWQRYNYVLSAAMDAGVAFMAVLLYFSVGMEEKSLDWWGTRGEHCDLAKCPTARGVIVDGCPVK

AtOPT6 = molecular target: T3, AtOPT6 (Arabidopsis thaliana, UniProt Q9T095); settings: 100 uM folinic acid, opt1-delta cells, pH 5.5, 30 °C, 5 min
T3 construct: gene OPT6; cDNA from Arabidopsis Biological Resource Center, TEF promoter plasmid, in S. cerevisiae opt1-delta cells
T3 sequence (Q9T095 1-736): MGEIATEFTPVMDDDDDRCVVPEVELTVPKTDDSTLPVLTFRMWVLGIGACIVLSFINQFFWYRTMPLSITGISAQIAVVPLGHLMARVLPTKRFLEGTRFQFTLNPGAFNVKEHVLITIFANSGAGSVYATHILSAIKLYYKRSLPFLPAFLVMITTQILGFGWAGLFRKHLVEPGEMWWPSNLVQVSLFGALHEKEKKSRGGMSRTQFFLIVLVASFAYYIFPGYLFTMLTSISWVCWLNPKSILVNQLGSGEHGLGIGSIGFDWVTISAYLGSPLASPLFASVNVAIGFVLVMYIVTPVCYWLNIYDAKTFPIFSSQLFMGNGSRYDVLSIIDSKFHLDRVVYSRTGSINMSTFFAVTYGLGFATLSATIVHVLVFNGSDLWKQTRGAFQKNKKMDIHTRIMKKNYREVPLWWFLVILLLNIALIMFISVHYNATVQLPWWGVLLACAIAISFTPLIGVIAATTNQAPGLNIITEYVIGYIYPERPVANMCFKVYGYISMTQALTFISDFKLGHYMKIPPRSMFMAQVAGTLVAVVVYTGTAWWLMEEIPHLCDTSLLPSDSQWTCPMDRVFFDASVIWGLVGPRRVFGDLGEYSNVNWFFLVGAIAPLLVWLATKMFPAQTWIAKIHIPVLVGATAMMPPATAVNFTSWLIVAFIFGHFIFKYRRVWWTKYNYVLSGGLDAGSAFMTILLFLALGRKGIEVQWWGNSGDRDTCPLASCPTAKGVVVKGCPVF

Opt1p/Hgt1p (ScOPT1) = molecular target: T4, Opt1p/Hgt1p (ScOPT1) (Saccharomyces cerevisiae, UniProt P40897); settings: 100 uM folinic acid, opt1-delta cells, pH 5.5, 30 °C; time course
T4 construct: gene OPT1; full-length plasma membrane transporter, TEF promoter plasmid, in S. cerevisiae opt1-delta cells
T4 sequence (P40897 1-799): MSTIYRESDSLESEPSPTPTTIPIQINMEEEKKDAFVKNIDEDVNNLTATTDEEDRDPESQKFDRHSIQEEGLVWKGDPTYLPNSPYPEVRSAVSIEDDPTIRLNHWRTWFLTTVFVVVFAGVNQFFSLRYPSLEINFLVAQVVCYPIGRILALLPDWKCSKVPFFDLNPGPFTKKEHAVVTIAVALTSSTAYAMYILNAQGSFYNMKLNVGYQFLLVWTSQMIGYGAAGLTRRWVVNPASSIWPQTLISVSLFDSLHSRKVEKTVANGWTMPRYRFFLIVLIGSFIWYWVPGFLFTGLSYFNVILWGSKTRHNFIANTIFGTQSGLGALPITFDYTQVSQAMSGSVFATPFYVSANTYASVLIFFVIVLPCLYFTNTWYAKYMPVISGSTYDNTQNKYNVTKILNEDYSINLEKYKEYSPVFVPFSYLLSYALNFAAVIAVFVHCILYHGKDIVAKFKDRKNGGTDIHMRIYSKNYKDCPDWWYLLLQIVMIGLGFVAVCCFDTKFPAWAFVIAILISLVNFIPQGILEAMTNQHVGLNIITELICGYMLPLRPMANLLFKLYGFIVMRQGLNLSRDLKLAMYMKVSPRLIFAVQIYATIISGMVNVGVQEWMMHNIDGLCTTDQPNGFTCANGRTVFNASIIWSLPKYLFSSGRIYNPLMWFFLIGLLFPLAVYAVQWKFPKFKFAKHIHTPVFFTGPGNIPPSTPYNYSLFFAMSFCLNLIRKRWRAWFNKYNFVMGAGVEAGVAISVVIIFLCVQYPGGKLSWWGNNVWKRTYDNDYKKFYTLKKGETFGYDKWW

AtOPT2 = molecular target: T5, AtOPT2 (Arabidopsis thaliana, UniProt O04514); settings: 100 uM folinic acid, opt1-delta cells, pH 5.5, 30 °C, 5 min
T5 construct: gene OPT2; cDNA from Arabidopsis Biological Resource Center, TEF promoter plasmid, in S. cerevisiae opt1-delta cells
T5 sequence (O04514 1-734): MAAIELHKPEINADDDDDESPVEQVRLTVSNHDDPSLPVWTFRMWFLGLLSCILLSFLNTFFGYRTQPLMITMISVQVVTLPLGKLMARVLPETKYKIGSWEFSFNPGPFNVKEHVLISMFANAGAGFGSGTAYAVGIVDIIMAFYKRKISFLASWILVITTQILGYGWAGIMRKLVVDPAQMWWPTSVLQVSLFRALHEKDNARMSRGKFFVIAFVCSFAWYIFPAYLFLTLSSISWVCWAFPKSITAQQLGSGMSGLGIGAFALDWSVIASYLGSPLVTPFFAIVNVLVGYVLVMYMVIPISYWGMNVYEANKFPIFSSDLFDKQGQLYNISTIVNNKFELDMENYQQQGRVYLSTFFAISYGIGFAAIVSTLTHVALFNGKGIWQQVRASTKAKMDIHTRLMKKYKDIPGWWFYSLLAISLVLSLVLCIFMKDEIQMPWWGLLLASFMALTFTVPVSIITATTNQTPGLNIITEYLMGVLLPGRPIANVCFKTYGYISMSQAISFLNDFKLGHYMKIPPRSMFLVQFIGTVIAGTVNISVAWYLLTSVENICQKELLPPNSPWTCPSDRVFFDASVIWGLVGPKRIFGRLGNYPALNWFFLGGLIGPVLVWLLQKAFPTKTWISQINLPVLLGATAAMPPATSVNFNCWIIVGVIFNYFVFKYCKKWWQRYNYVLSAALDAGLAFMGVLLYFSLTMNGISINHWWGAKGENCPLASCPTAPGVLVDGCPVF

CaOPT1 = molecular target: T6, CaOPT1 (Candida albicans, UniProt Q5YBA3); settings: 100 uM folinic acid, opt1-delta cells, pH 5.5, 30 °C, 5 min
T6 construct: gene OPT1; TEF promoter plasmid, expressed in S. cerevisiae opt1-delta cells
T6 sequence (Q5YBA3 1-783): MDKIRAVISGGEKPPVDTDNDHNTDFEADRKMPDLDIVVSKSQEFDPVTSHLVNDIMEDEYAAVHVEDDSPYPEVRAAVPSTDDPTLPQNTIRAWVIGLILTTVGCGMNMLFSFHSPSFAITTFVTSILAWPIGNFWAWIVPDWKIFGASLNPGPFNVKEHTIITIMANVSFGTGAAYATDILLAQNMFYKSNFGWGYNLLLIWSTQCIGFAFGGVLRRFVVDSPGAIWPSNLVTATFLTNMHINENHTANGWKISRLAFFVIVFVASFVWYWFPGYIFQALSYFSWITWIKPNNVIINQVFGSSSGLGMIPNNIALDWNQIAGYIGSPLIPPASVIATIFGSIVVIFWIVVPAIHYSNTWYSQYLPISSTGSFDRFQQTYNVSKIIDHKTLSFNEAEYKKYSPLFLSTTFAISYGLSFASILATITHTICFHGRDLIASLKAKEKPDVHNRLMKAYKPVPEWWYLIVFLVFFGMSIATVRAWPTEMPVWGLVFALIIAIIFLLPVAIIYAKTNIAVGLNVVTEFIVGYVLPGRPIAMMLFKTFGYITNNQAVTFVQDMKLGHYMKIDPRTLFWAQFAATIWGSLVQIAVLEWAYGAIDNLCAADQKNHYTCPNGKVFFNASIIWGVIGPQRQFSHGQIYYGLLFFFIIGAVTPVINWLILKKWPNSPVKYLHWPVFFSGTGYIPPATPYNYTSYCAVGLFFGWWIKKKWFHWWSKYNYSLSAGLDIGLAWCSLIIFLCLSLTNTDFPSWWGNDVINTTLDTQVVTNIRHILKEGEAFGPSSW

SMILES: Nc1nc2c(c(=O)[nH]1)N(C=O)[C@@H](CNc1ccc(C(=O)N[C@@H](CCC(=O)O)C(=O)O)cc1)CN2 [folinic acid]
- LC-MS/MS cellular uptake versus vector control (AfOPTH): carried out uptake experiments with AfOPTH to confirm its ability to transport folates
- LC-MS/MS cellular uptake versus vector control (AtOPT4): AtOPT2 and AtOPT4 and even AtOPT6 contribute to folate transport
- LC-MS/MS cellular uptake versus vector control (AtOPT6): AtOPT2 and AtOPT4 and even AtOPT6 contribute to folate transport
- LC-MS/MS cellular uptake versus vector control (Opt1p/Hgt1p (ScOPT1)): a rapid increase in intracellular folinic acid was observed in the cells bearing TEF-OPT1 plasmid
- LC-MS/MS cellular uptake versus vector control (AtOPT2): AtOPT2 and AtOPT4 and even AtOPT6 contribute to folate transport
- LC-MS/MS cellular uptake versus vector control (CaOPT1): confirmed the ability of C. albicans CaOPT1 to transport folate by uptake assays
